Experimental data from ChEMBL document CHEMBL1833895, “Synthesis and biological activity of desmethoxy analogues of coruscanone A” (Bioorg Med Chem Lett, 2011).

Key:
Candida albicans [1] = test: Antifungal activity against Candida albicans ATCC 44859 after 48 hrs by microdilution method; assay type: functional; settings: ATCC 44859, 48 h
Candida albicans [2] = test: Antifungal activity against Candida albicans ATCC 90028 after 24 hrs by microdilution method; assay type: functional; settings: ATCC 90028, 24 h
Candida albicans [3] = test: Antifungal activity against Candida albicans ATCC 90028 after 48 hrs by microdilution method; assay type: functional; settings: ATCC 90028, 48 h
Candida parapsilosis [4] = test: Antifungal activity against Candida parapsilosis ATCC 22019 after 24 hrs by microdilution method; assay type: functional; settings: Lodderomyces parapsilosis, ATCC 22019, 24 h
Candida parapsilosis [5] = test: Antifungal activity against Candida parapsilosis ATCC 22019 after 48 hrs by microdilution method; assay type: functional; settings: Lodderomyces parapsilosis, ATCC 22019, 48 h
Pichia kudriavzevii [6] = test: Antifungal activity against Candida krusei ATCC 6258 after 24 hrs by microdilution method; assay type: functional; settings: ATCC 6258, 24 h
Pichia kudriavzevii [7] = test: Antifungal activity against Candida krusei ATCC 6258 after 48 hrs by microdilution method; assay type: functional; settings: ATCC 6258, 48 h
Pichia kudriavzevii [8] = test: Antifungal activity against Candida krusei E28 after 24 hrs by microdilution method; assay type: functional; settings: E28, 24 h
Pichia kudriavzevii [9] = test: Antifungal activity against Candida krusei E28 after 48 hrs by microdilution method; assay type: functional; settings: E28, 48 h
Candida tropicalis [10] = test: Antifungal activity against Candida tropicalis 156 after 24 hrs by microdilution method; assay type: functional; settings: Candida tropicalis, 156, 24 h
Candida tropicalis [11] = test: Antifungal activity against Candida tropicalis 156 after 48 hrs by microdilution method; assay type: functional; settings: Candida tropicalis, 156, 48 h
Nakaseomyces glabratus [12] = test: Antifungal activity against Candida glabrata 20/I after 24 hrs by microdilution method; assay type: functional
Nakaseomyces glabratus [13] = test: Antifungal activity against Candida glabrata 20/I after 48 hrs by microdilution method; assay type: functional
Clavispora lusitaniae [14] = test: Antifungal activity against Candida lusitaniae 2446/I after 24 hrs by microdilution method; assay type: functional
Clavispora lusitaniae [15] = test: Antifungal activity against Candida lusitaniae 2446/I after 48 hrs by microdilution method; assay type: functional
Trichosporon asahii [16] = test: Antifungal activity against Trichosporon asahii 1188 after 24 hrs by microdilution method; assay type: functional; settings: Trichosporon asahii, 1188, 24 h
Trichosporon asahii [17] = test: Antifungal activity against Trichosporon asahii 1188 after 48 hrs by microdilution method; assay type: functional; settings: Trichosporon asahii, 1188, 48 h
Aspergillus fumigatus [18] = test: Antifungal activity against Aspergillus fumigatus 231 after 24 hrs by microdilution method; assay type: functional, organism-based; settings: Aspergillus fumigatus, 231, 24 h
Aspergillus fumigatus [19] = test: Antifungal activity against Aspergillus fumigatus 231 after 48 hrs by microdilution method; assay type: functional, organism-based; settings: Aspergillus fumigatus, 231, 48 h
Lichtheimia corymbifera [20] = test: Antifungal activity against Absidia corymbifera 272 after 24 hrs by microdilution method; assay type: functional, organism-based; settings: Lichtheimia corymbifera, 272, 24 h
Lichtheimia corymbifera [21] = test: Antifungal activity against Absidia corymbifera 272 after 48 hrs by microdilution method; assay type: functional, organism-based; settings: Lichtheimia corymbifera, 272, 48 h
Candida albicans [22] = test: Antifungal activity against Candida albicans ATCC 44859 after 24 hrs by microdilution method; assay type: functional; settings: ATCC 44859, 24 h
[23] = tested on: Trichophyton mentagrophytes; test: Antifungal activity against Trichophyton mentagrophytes 445 after 72 hrs by microdilution method; assay type: functional, organism-based; settings: Trichophyton mentagrophytes, 445, 72 h
[24] = tested on: Trichophyton mentagrophytes; test: Antifungal activity against Trichophyton mentagrophytes 445 after 120 hrs by microdilution method; assay type: functional, organism-based; settings: Trichophyton mentagrophytes, 445, 120 h
L1210 = test: Cytostatic activity against mouse L1210 cells at 10 umol/L after 72 hrs by XTT assay; assay type: ADME, cell-based; settings: l1210, 72 h, 10 µM
HL-60 = test: Cytostatic activity against human HL60 cells at 10 umol/L after 72 hrs by XTT assay; assay type: ADME, cell-based; settings: hl-60, 72 h, 10 µM
[25] = Cytostatic activity against human HeLaS3 cells after 48 hrs by XTT assay; assay type: ADME, cell-based; settings: HeLa S3, 48 h
CCRF-CEM [26] = test: Cytostatic activity against human CCRF-CEM cells after 72 hrs by XTT assay; assay type: ADME, cell-based
HT-29 = test: Cytostatic activity against human HT-29 cells at 10 umol/L after 72 hrs by XTT assay; assay type: ADME, cell-based; settings: ht-29, 72 h, 10 µM
[27] = Cytostatic activity against human COLO201 cells at 10 umol/L after 72 hrs by XTT assay; assay type: ADME, cell-based; settings: colo 201, 72 h, 10 µM
[28] = Cytostatic activity against human HeLaS3 cells at 10 umol/L after 48 hrs by XTT assay; assay type: ADME, cell-based; settings: hela s3, 48 h, 10 µM
CCRF-CEM [29] = test: Cytostatic activity against human CCRF-CEM cells at 10 umol/L after 72 hrs by XTT assay; assay type: ADME, cell-based; settings: 10 µM

Row | SMILES | IC80 (Candida albicans [1]) | IC80 (Candida albicans [2]) | IC80 (Candida albicans [3]) | IC80 (Candida parapsilosis [4]) | IC80 (Candida parapsilosis [5]) | IC80 (Pichia kudriavzevii [6]) | IC80 (Pichia kudriavzevii [7]) | IC80 (Pichia kudriavzevii [8]) | IC80 (Pichia kudriavzevii [9]) | IC80 (Candida tropicalis [10]) | IC80 (Candida tropicalis [11]) | IC80 (Nakaseomyces glabratus [12]) | IC80 (Nakaseomyces glabratus [13]) | IC80 (Clavispora lusitaniae [14]) | IC80 (Clavispora lusitaniae [15]) | IC80 (Trichosporon asahii [16]) | IC80 (Trichosporon asahii [17]) | IC80 (Aspergillus fumigatus [18]) | IC80 (Aspergillus fumigatus [19]) | IC80 (Lichtheimia corymbifera [20]) | further results
1 | O=C1C=CC(=O)C1=Cc1ccco1 | 15.6 µM | 15.6 µM | 15.6 µM | 15.6 µM | 15.6 µM | 7.81 µM | 15.6 µM | 15.6 µM | 15.6 µM | 15.6 µM | 15.6 µM | 15.6 µM | 15.6 µM | 15.6 µM | 15.6 µM | 15.6 µM | 31.2 µM | 15.6 µM | 31.2 µM | 250 µM | IC80 (Lichtheimia corymbifera [21]): > 500 µM; IC80 (Candida albicans [22]): 7.81 µM; IC80 [23]: 7.81 µM; IC50 [24]: 7.81 µM; Activity (L1210): Non-toxic; Activity (HL-60): Non-toxic; IC50 [25]: 7.3 µM; IC50 (CCRF-CEM [26]): 2.5 µM; Activity (HT-29): Non-toxic; Activity [27]: Non-toxic
2 | O=C1C=CC(=O)C1=C/C=C/c1ccccc1 | 1.95 µM | 15.6 µM | 15.6 µM | 3.9 µM | 7.81 µM | 3.9 µM | 7.81 µM | 15.6 µM | 15.6 µM | 7.81 µM | 15.6 µM | 15.6 µM | 31.2 µM | 7.81 µM | 15.6 µM | 7.81 µM | 15.6 µM | 31.2 µM | 31.2 µM | > 125 µM | IC80 (Lichtheimia corymbifera [21]): > 125 µM; IC80 (Candida albicans [22]): 1.95 µM; IC80 [23]: 7.81 µM; IC50 [24]: 62.5 µM; Activity (L1210): Non-toxic; Activity (HL-60): Non-toxic; Activity [28]: Non-toxic; IC50 (CCRF-CEM [26]): 4.4 µM; Activity (HT-29): Non-toxic; Activity [27]: Non-toxic
3 | COc1ccc(/C=C/C=C2C(=O)C=CC2=O)cc1 | 250 µM | 250 µM | 250 µM | 250 µM | 250 µM | 250 µM | 250 µM | 250 µM | 250 µM | 250 µM | 250 µM | 250 µM | 250 µM | 250 µM | 250 µM | 250 µM | 500 µM | 250 µM | 250 µM | > 500 µM | IC80 (Lichtheimia corymbifera [21]): > 500 µM; IC80 (Candida albicans [22]): 125 µM; IC80 [23]: 250 µM; IC50 [24]: 500 µM; Activity (L1210): Non-toxic; Activity (HL-60): Non-toxic; Activity [28]: Non-toxic; Activity (CCRF-CEM [29]): Non-toxic; Activity (HT-29): Non-toxic; Activity [27]: Non-toxic
4 | O=C1C=CC(=O)C1=Cc1ccc(Br)cc1 | 15.6 µM | 15.6 µM | 15.6 µM | 15.6 µM | 15.6 µM | 15.6 µM | 15.6 µM | 15.6 µM | 15.6 µM | 15.6 µM | 15.6 µM | 15.6 µM | 15.6 µM | 15.6 µM | 15.6 µM | 15.6 µM | 15.6 µM | 31.2 µM | 31.2 µM | > 125 µM | IC80 (Lichtheimia corymbifera [21]): > 125 µM; IC80 (Candida albicans [22]): 7.81 µM; IC80 [23]: 15.6 µM; IC50 [24]: 15.6 µM; Activity (L1210): Non-toxic; Activity (HL-60): Non-toxic; IC50 [25]: 4.9 µM; IC50 (CCRF-CEM [26]): 1.8 µM; Activity (HT-29): Non-toxic; Activity [27]: Non-toxic
5 | O=C1C=CC(=O)C1=Cc1ccc(Cl)cc1 | 31.2 µM | 31.2 µM | 31.2 µM | 31.2 µM | 31.2 µM | 31.2 µM | 31.2 µM | 31.2 µM | 62.5 µM | 31.2 µM | 31.2 µM | 62.5 µM | 62.5 µM | 31.2 µM | 31.2 µM | 31.2 µM | 62.5 µM | 62.5 µM | 62.5 µM | > 125 µM | IC80 (Lichtheimia corymbifera [21]): > 125 µM; IC80 (Candida albicans [22]): 7.81 µM; IC80 [23]: 125 µM; IC50 [24]: > 125 µM; Activity (L1210): Non-toxic; Activity (HL-60): Non-toxic; Activity [28]: Non-toxic; IC50 (CCRF-CEM [26]): 6.1 µM; Activity (HT-29): Non-toxic; Activity [27]: Non-toxic
6 | O=C1C=CC(=O)C1=Cc1ccc(F)cc1 | 15.6 µM | 15.6 µM | 31.2 µM | 15.6 µM | 31.2 µM | 15.6 µM | 31.2 µM | 15.6 µM | 31.2 µM | 15.6 µM | 31.2 µM | 31.2 µM | 31.2 µM | 15.6 µM | 31.2 µM | 31.2 µM | 62.5 µM | 31.2 µM | 62.5 µM | > 125 µM | IC80 (Lichtheimia corymbifera [21]): > 125 µM; IC80 (Candida albicans [22]): 7.81 µM; IC80 [23]: 15.6 µM; IC50 [24]: 15.6 µM; Activity (L1210): Non-toxic; Activity (HL-60): Non-toxic; Activity [28]: Non-toxic; IC50 (CCRF-CEM [26]): 1.6 µM; Activity (HT-29): Non-toxic; Activity [27]: Non-toxic
